In article PMC11642044 (International Journal of Molecular Sciences, 2024):
pEC50: −log10 of the molar value. Where two headings read alike, the source gives them in different places. Where a SMILES comes first, the peptide text is derived from it.

What was measured:
[1] = test system: primary astrocytes; assay: LIF secretion (ELISA), primary astrocytes; format: cell-based, mouse
Experimental: HEK293, U87-MG, 1321N1, SK-N-SH, and SK-N-MC cells were cultured in MEM supplemented with 10% (vol/vol) fetal bovine serum (FBS), 50 U/mL penicillin, and 50 μg/mL streptomycin. Primary astrocyte cultures were prepared from the cerebral cortexes of neonatal mice (P2). The cerebral hemispheres were isolated and transferred to ice-cold Hank’s buffer, and the meninges were carefully removed. Tissues were then minced into approximately 1 mm pieces, triturated, filtered through a 60 µm nylon screen, and collected by centrifugation at approximately 3000× g for 5 min. The cell pellets were dispersed with a pipette and resuspended in a medium containing 10% (vol/vol) FBS in low-glucose Dulbecco’s modified Eagle’s medium. After trituration, the cells were filtered through a 10 µm screen and then plated into 6-well plates at a density of 3 × 10^5 cells/mL and cultured for about 10 days. The medium was replaced twice per week. Dibutyryl cyclic adenosine monophosphate (DBcAMP; 0.15 mM, Sigma, St Louis, MO, USA) was added to induce differentiation when the cells were grown to 95% confluence. […]
Conditioned media were analyzed for the presence of multiple cytokines by using the cytokine multiplex assay kits (Merck Millipore, MA, USA) as previously described. […] The detection beads were then washed again and resuspended in 120 μL of reading buffer. […]

[2] = test system: STAT3 in SK-N-MC cells; assay: STAT3 phosphorylation by direct application of cytokine, SK-N-MC; format: cell-based, human; settings: LIF 0–100 ng/mL, 15 min
Experimental: (§1) To determine if the experimental cells were readily responsive to LIF and IL-6, SK-N-MC cells, mouse primary neurons and primary astrocytes (80–100% confluence in 12-well plates) were serum-starved for 6 h, followed by treatment of indicated concentrations (0–100 ng/mL) of LIF and IL-6 for 15 min. The subsequent cell lysates were subjected to SDS-PAGE and Western blot with specific antibodies to detect stimulatory phosphorylated forms and the total amounts of STAT3.
(§2) SDS-PAGE and Western blotting were performed as described in our previous studies. […] The amount of protein in each sample was determined by detergent compatible (DC) protein assay according to the supplier’s instruction (Bio-Rad, Hercules, CA, USA). […] Resolved proteins were detected by specific primary antibodies and horseradish peroxidase-conjugated secondary antisera. The level of β-actin was determined as an internal control. […] Chemiluminescence signals were then detected by ChemiDoc imaging systems (Bio-Rad, Hercules, CA, USA) with the subsequent band densities quantified by ImageJ (https://imagej.net/ij/) analysis software (National Institutes of Health, MD, USA). […]

[3] = test system: STAT3 in U87-MG cells; assay: STAT3 phosphorylation by direct application of cytokine, U87-MG; format: cell-based, human
[4] = test system: STAT3 in primary mouse cortical neurons; assay: STAT3 phosphorylation by direct application of cytokine, primary cortical neurons; format: cell-based; settings: 0–100 ng/mL, 15 min
Experimental: as §1, §2

[5] = test system: STAT3 in primary mouse astrocytes; assay: STAT3 phosphorylation by direct application of cytokine, primary astrocytes; format: cell-based; settings: 0–100 ng/mL, 15 min
Experimental: as §1
SDS-PAGE and Western blotting were performed as described in our previous studies. In brief, cells in 6-well plates (5 × 10^5 cells/well) were lysed in 500 μL of ice-cold lysis buffer (50 mM Tris-HCl at pH 7.5 containing 100 mM NaCl, 5 mM EDTA, 40 mM NaP2O7, 1% Triton X-100, 1 mM dithiothreitol, 200 μM Na3VO4, 100 μM phenylmethylsulfonyl fluoride, 2 μg/mL leupeptin, 4 μg/mL aprotinin, and 0.7 μg/mL pepstatin) and then gently shaken for 30 min. The amount of protein in each sample was determined by detergent compatible (DC) protein assay according to the supplier’s instruction (Bio-Rad, Hercules, CA, USA). Clarified lysates (30 μg protein per sample) were resolved on 12% SDS-polyacrylamide gels and then transferred to nitrocellulose membranes (Westborough, MA, USA). Resolved proteins were detected by specific primary antibodies and horseradish peroxidase-conjugated secondary antisera. The level of β-actin was determined as an internal control. Immunoblots were visualized by chemiluminescence with the WesternBright ECL reagents from Advansta (San Jose, CA, USA). Chemiluminescence signals were then detected by ChemiDoc imaging systems (Bio-Rad, Hercules, CA, USA) with the subsequent band densities quantified by ImageJ (https://imagej.net/ij/) analysis software (National Institutes of Health, MD, USA). All primary antibodies which specifically recognize B1R, B2R, ERK, p-ERK, p38, p-p38, JNK, p-JNK, STAT3, p-STAT3, and β-actin were applied at 1:1000 dilution for Western blotting.

[6] = test system: 1321-N1 cells; assay: Intracellular Ca2+ mobilization by Gq-coupled receptor agonists (FLIPR, Fluo-4), 1321-N1; format: cell-based, human
Experimental: (§3) Cells were seeded in 96-well plates (clear bottom and black wall) at 2.5 × 10^4 cells per well on the day before assay. The cells (~80–100% confluence) were then washed with Hank’s balanced salt solution (HBSS) and aspirated, followed by addition of 100 μL of FLIPR labeling dye (containing Fluo-4 and probenecid in HBSS) to each well before incubation at 37 °C for 1 h. Finally, the 96-well plate containing the labeled cells was transferred to the FLIPR (Molecular Devices, San Jose, CA, USA), and 50 μL of HBSS (with or without agonists) was added to each well. The fluorescent signals that reflect the intracellular Ca^2+ transients were monitored by an excitation wavelength of 488 nm, and detection was undertaken with an emission wavelength from 510 to 570 nm for 3 min upon the drug treatments, as described previously.

[7] = test system: STAT3 in SK-N-MC cells; assay: STAT3 Tyr705 phosphorylation in SK-N-MC by conditioned media from agonist-treated U87-MG; format: cell-based, human
Experimental: (§4) These conditioned media were either immediately applied to SK-N-SH/SK-N-MC cells (80–100% confluence) in 6-well plates for 15 min, or subjected to heat treatment on a 96 °C heat block for 5 min, and then cooled to 37 °C before they were applied to the SK-N-SH/SK-N-MC cells for 15 min. […] For the SK-N-MC-derived conditioned media, SK-N-MC cells (80–100% confluence) in a 10 cm culture dish were serum-starved in 10 mL of MEM (without FBS), with 1 mL of the resulting conditioned medium being collected at indicated time points (15 min, 1 h, 3 h, 6 h). Simultaneously, U87-MG cells (80–100% confluence) in 12-well plates were serum-starved in MEM for 6 h, followed by pretreatment of […] (5 μM, 15 min), and then challenged with the SK-N-MC-derived conditioned media (mentioned above) for 10 min before cell lysis. […]
(§5) SDS-PAGE and Western blotting were performed as described in our previous studies. […] The amount of protein in each sample was determined by detergent compatible (DC) protein assay according to the supplier’s instruction (Bio-Rad, Hercules, CA, USA). […] Resolved proteins were detected by specific primary antibodies and horseradish peroxidase-conjugated secondary antisera. The level of β-actin was determined as an internal control.

[8] = test system: ERK in SK-N-SH cells; format: cell-based, human
Experimental: as §4, §5

[9] = test system: ERK in SK-N-MC cells; format: cell-based, human
Experimental: as §4, §5

[10] = test system: U87-MG cells; assay: Intracellular Ca2+ mobilization by Gq-coupled receptor agonists (FLIPR, Fluo-4), U87-MG; format: cell-based, human
Experimental: as §3

[11] = test system: U87-MG cells; assay: LIF production into conditioned media (ELISA), U87-MG; format: cell-based, human
[12] = test system: melatonin MT1 receptor with Gα16; format: cell-based, human
Experimental: Supplementary Methods (for Supplementary Figures) […]
(Merck Millipore, MA, USA). HEK293 cells (80-100% confluence in 6-well plates) stably expressing MT1R alone or together with Gα16 as described previously [Ref. 21] were treated with 1 μM of melatonin (Tocris Bioscience, Minneapolis, MN) in 1 mL of MEM per well without FBS for 24 h. The resulting conditioned media were collected in 1.5 mL microcentrifuge tubes, with the presence of secretory LIF and IL-6 quantified by ELISA assays (Abcam, Cambridge, UK) according to the manufacturer’s […]

[13] = test system: primary astrocytes; assay: Intracellular Ca2+ mobilization by Gq-coupled receptor agonists (FLIPR, Fluo-4), primary cortical astrocytes; format: cell-based, mouse; settings: 10 μM agonist, n = 4
Experimental: HEK293, U87-MG, 1321N1, SK-N-SH, and SK-N-MC cells were cultured in MEM supplemented with 10% (vol/vol) fetal bovine serum (FBS), 50 U/mL penicillin, and 50 μg/mL streptomycin. Primary astrocyte cultures were prepared from the cerebral cortexes of neonatal mice (P2). The cerebral hemispheres were isolated and transferred to ice-cold Hank’s buffer, and the meninges were carefully removed. Tissues were then minced into approximately 1 mm pieces, triturated, filtered through a 60 µm nylon screen, and collected by centrifugation at approximately 3000× g for 5 min. The cell pellets were dispersed with a pipette and resuspended in a medium containing 10% (vol/vol) FBS in low-glucose Dulbecco’s modified Eagle’s medium. After trituration, the cells were filtered through a 10 µm screen and then plated into 6-well plates at a density of 3 × 10^5 cells/mL and cultured for about 10 days. The medium was replaced twice per week. Dibutyryl cyclic adenosine monophosphate (DBcAMP; 0.15 mM, Sigma, St Louis, MO, USA) was added to induce differentiation when the cells were grown to 95% confluence. Primary mouse cortical neuronal cultures were obtained from E16 ICR mouse embryos. Briefly, cerebral cortices were removed from mouse embryos and mechanically dissociated in PBS with glucose (18 mM). Neurons were then seeded onto poly-L-lysine (1 mg/mL)-coated 96-well plates at 5 × 10^4 cells/well in a B27 Plus Neuronal culture system (Thermo Fisher Scientific), supplemented with 2 mM glutamine, 5 μM mercaptoethanol, 100 U/mL penicillin and 100 μg/mL streptomycin. The cultured neurons were maintained in a humidified incubator at 37 °C with 5% CO2 for 7 days prior to use.
as §3

For `N=C(N)NCCC[C@H](NC(=O)[C@H](Cc1ccccc1)NC(=O)[C@@H]1CCCN1C(=O)[C@H](CO)NC(=O)[C@H](Cc1ccccc1)NC(=O)CNC(=O)[C@@H]1CCCN1C(=O)[C@@H]1CCCN1C(=O)[C@@H](N)CCCNC(=N)N)C(=O)O` [bradykinin] (H-RPPGFSPFR-OH), the pEC50 [1] was 7.64.
With leukemia inhibitory factor [LIF] the STAT3 phosphorylation [2] was “dose-dependent manner”, the STAT3 phosphorylation [3] was “readily stimulated by LIF in a dose-dependent manner” and the STAT3 phosphorylation [4] was “dose-dependently stimulated STAT3 phosphorylation”. The “STAT3 response compared with IL-6” value [4] was “apparently stronger than that induced by IL-6”, the “potency in STAT3 phosphorylation compared with IL-6” value [5] was “even more potent than IL-6” and the STAT3 phosphorylation ([5]; n = 3) was “readily stimulated by LIF in a dose-dependent manner”.
`NCCc1c[nH]cn1` [histamine] was tested, and the “Ca2+ response, fold stimulation” value [6] was “over 100 fold”, the “intracellular Ca2+ response” value [6] was “significantly stimulated intracellular Ca^2+ responses” and the “STAT3 Tyr705 phosphorylation by conditioned media” value [7] was “stimulated STAT3 Tyr^705 phosphorylation”. For the same compound, the “ERK phosphorylation by conditioned media” value [8] was “little or no change in ERK phosphorylation”, the “ERK phosphorylation by conditioned media” value [9] was “little or no change in ERK phosphorylation” and the “Ca2+ response, fold stimulation” value [10] was “over 100 fold”. The “intracellular Ca2+ response” value [10] was “significantly stimulated intracellular Ca^2+ responses” and the LIF production [11] was “significantly elevated the levels of LIF”.
`COc1ccc2[nH]cc(CCNC(C)=O)c2c1` [melatonin] was tested, and the IL-6 release [12] was “induced the release of both LIF and IL-6” and the LIF release [12] was “induced the release of both LIF and IL-6”.
`C[N+](C)(C)CCOC(N)=O` [carbachol] was tested, and the “Ca2+ response, fold stimulation” value ([6]; 10 μM agonist, 1321-N1, FLIPR) was “over 100 fold”, the “intracellular Ca2+ response” value ([6]; 10 μM agonist, 1321-N1, FLIPR, Fluo-4, 3 min, n = 3) was “elicited Ca^2+ responses in 1321-N1 cells” and the “intracellular Ca2+ mobilization” value [13] was “significantly stimulated Ca^2+ mobilization”. For the same compound, the “intracellular Ca2+ response” value ([10]; 10 μM agonist, U87-MG, FLIPR, Fluo-4, 3 min, n = 3) was “lack of a carbachol-stimulated Ca^2+ response” and the LIF production ([11]; 10 μM agonist, 24 h, U87-MG, ELISA, n = 3) was “failed to induce the production of LIF”.
